The values that follow come from US20030055077A1, “Method and compositions for the treatment of allergic conditions using pgd2 receptor antagonists” (priority 2002, published 2003).

The assay deals with ovalbumin-sensitized guinea pigs. In words: Guinea pig allergic rhinitis model: intranasal pressure after nasal ovalbumin challenge. The format is in vivo. The note with it: single administration, 60 minutes prior to ovalbumin 1% challenge, AUC 0-30 min. Here is the method:
Male Hartley guinea pigs (250-500 g) purchased from Charles River (St-Constant, Qc, Canada) were used. They were housed in a temperature and humidity controlled environment, in groups of four or five with food and water available ad libitum. Experimental procedures were approved by the Animal Care Committee at Merck Frosst Centre for Therapeutic Research, in accordance with the guidelines of the Canadian Council on Animal Care.
Sensitization: The animals were injected intrapeRitoneally with 0.5 ml of an ovalbumin solution (100 μg/ml) containing 100 mg/ml aluminum hydroxide in 0.9% saline. […]
Following the surgical preparation, gallamine (2 mg/kg, i.v.) was administered to suppress spontaneous breathing. […] The changes in the intranasal pressure were monitored through a pressure transducer (Validyne DP-45, membrane 6-26, Validyne Corp., Northridge, Calif.) connected to a side arm of the nasal cannula. Values were recorded every 5 seconds using a data acquisition system (Modular Instruments, Malvern, Pa.). […] The changes in intranasal pressure were recorded for 30 minutes following the nasal challenge, using the peak response.
The effects of test compounds were evaluated on the increased intranasal pressure following a nasal challenge with an aerosol of ovalbumin 1% for 3 minutes. […]

Structures are written as SMILES.

For `C[S@+]([O-])c1cccc2c3c(n(Cc4ccc(Cl)cc4)c12)[C@@H](CC(=O)O)CCC3` [Compound I, 2-[(1R)-9-(4-chlorobenzyl)-8-((S)-methylsulfinyl)-2,3,4,9-tetrahydro-1H-carbazol-1-yl]acetic acid], the “effect on the increase in intranasal pressure produced by aerosol of ovalbumin” value (1 mg/kg i.p.) is reported as “no significant effect”.
`COc1ccc(CN(CCN(C)C)c2ccccn2)cc1` [mepyramine]: the “effect on the increase in intranasal pressure produced by aerosol of ovalbumin” value (5 mg/kg i.p.) is on record as “no significant effect”.
